Test systems include HL-60(TB) leukemia; IGROV1 ovarian; KM12 colon; NCI/ADR-RES ovarian; OVCAR-3 ovarian; OVCAR-8 ovarian; PC-3 prostate; SF-268 CNS; SR leukemia; UO-31 renal.
Assay in all cases: NCI tumour cell line growth inhibition, 48 h

“And” between values parts separate entries of the source, which are not always exact repeats. Identical values can stand only once.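 All cell lines were grown in 96-well plates and treated with compound for 48 hours. The concentration for 50% growth inhibition is given as GI50. Definition used: TGI = concentration required for complete inhibition of growth.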 Where a SMILES comes first, the peptide text is derived from it. [ ]: non-standard residue; d: D form. The star is where a group is joined. ξ: configuration not given here. NMeY = CN[C@@H](Cc1ccc(O)cc1)C(=O)O; Cbz = O=C(OCc1ccccc1)*; ξA = CC(N)C(=O)O Some results are limits rather than exact numbers.

On to `Oc1ccc2ccccc2c1-c1nnc(CCCCCCCCc2nnc(-c3c(O)ccc4ccccc34)o2)o1`, for which the TGI was 2.5 µM with HL-60(TB) leukemia; 25 µM and 98.6 µM in the assay on IGROV1 ovarian; 25 µM and > 100 µM in the assay with KM12 colon; 22.4 µM and 50.6 µM in the assay on PC-3 prostate; > 100 µM in the assay on SF-268 CNS; 25 µM and 11.9 µM in the assay with SR leukemia. For the same compound, the TGI with UO-31 renal is 19.2 µM and 15.4 µM. Besides, the GI50 in the assay with IGROV1 ovarian is 11.6 µM; with KM12 colon, 3.96 µM; in the assay with NCI/ADR-RES ovarian, 0.38 µM; in the assay on OVCAR-3 ovarian, 0.135 µM; with OVCAR-8 ovarian, 0.317 µM; in the assay with PC-3 prostate it was 1.55 µM. The GI50 with SR leukemia was 1.6 µM and 0.28 µM; in the assay on UO-31 renal, 0.93 µM.
`[N-]=[N+]=NC1(c2ccccc2)C(=O)Nc2ccccc2C1=O` (stereo not drawn): the TGI in the assay with HL-60(TB) leukemia, with IGROV1 ovarian, in the assay on KM12 colon, with NCI/ADR-RES ovarian, in the assay on OVCAR-3 ovarian and in the assay with PC-3 prostate was > 100 µM in each case. Moreover, the TGI in the assay on SF-268 CNS is > 100 µM; in the assay with SR leukemia it was > 100 µM; with UO-31 renal it was 73.8 µM.
Take `CCOC(=O)CCC(NC(=O)OCc1ccccc1)C(=O)NNC(=O)OC(C)(C)C` (stereo not drawn): the TGI with HL-60(TB) leukemia, in the assay with IGROV1 ovarian, with KM12 colon, in the assay on NCI/ADR-RES ovarian, in the assay with OVCAR-3 ovarian and in the assay with OVCAR-8 ovarian was > 100 µM in each case. The TGI in the assay with PC-3 prostate, in the assay on SF-268 CNS, with SR leukemia and in the assay with UO-31 renal was > 100 µM in each case.
With `COc1ccc(C[C@@H](C(=O)NCC(N)=O)N(C)C(=O)[C@@H]2CCCN2C(=O)[C@H](CC(C)C)NC(=O)C(C)NC(=O)OCc2ccccc2)cc1` (stereo partly drawn) (Cbz-[ξA]LP[NMeY](Me)G-NH2), the TGI in the assay on HL-60(TB) leukemia, in the assay with IGROV1 ovarian, in the assay on KM12 colon, in the assay on NCI/ADR-RES ovarian, with OVCAR-3 ovarian and in the assay with OVCAR-8 ovarian was > 100 µM each time. For the same compound, the TGI in the assay with PC-3 prostate, in the assay on SF-268 CNS, in the assay on SR leukemia and in the assay with UO-31 renal was > 100 µM in each case.
For the compound `CC(=O)N[C@@H](Cc1ccc(O)cn1)C(=O)NCc1ccc2c(c1)OCO2`, the TGI in the assay with HL-60(TB) leukemia, with IGROV1 ovarian, in the assay on KM12 colon, in the assay on NCI/ADR-RES ovarian, in the assay with OVCAR-3 ovarian and with OVCAR-8 ovarian was > 100 µM in each case. For the same compound, the TGI in the assay with PC-3 prostate, with SF-268 CNS, in the assay on SR leukemia and in the assay on UO-31 renal was > 100 µM each time.
For the compound `CCCCCCCCCCCCCCCCP(=O)(O)OP(=O)(O)OCC1OC(n2ccc(N)nc2=O)C(O)C1O` (stereo not drawn), the TGI in the assay on HL-60(TB) leukemia is > 100 µM; in the assay with IGROV1 ovarian, > 100 µM; in the assay with KM12 colon it was > 100 µM; in the assay with NCI/ADR-RES ovarian, > 100 µM; with OVCAR-3 ovarian it was > 100 µM; in the assay on OVCAR-8 ovarian, > 100 µM and 51.3 µM. Further, the TGI with PC-3 prostate is > 100 µM; in the assay with SF-268 CNS, > 100 µM; with SR leukemia it was 23.7 µM; in the assay with UO-31 renal, > 100 µM and 28 µM. Moreover, the GI50 in the assay on IGROV1 ovarian was 62.4 µM and 26 µM; with PC-3 prostate, 37.8 µM and 10.8 µM; in the assay with SF-268 CNS, 83.3 µM and 41.4 µM.
With `Cc1[nH]c(=O)nc(N/N=C/c2ccc(Cl)c(Cl)c2)c1C(=O)Nc1ccc(Cl)c(Cl)c1`, the TGI in the assay on HL-60(TB) leukemia was > 78.2 µM; in the assay on IGROV1 ovarian it was > 39.2 µM; in the assay on KM12 colon it was > 22.2 µM; in the assay on NCI/ADR-RES ovarian, > 47.6 µM; in the assay on OVCAR-3 ovarian, 24.5 µM; in the assay with OVCAR-8 ovarian, 14.8 µM. Moreover, the TGI in the assay with PC-3 prostate is > 51.5 µM; in the assay on SF-268 CNS it was 40.7 µM; in the assay on SR leukemia, > 100 µM; in the assay with UO-31 renal, > 56.2 µM.
Consider `CC1(C)OC[C@@H](/C=C\CCO[Si](c2ccccc2)(c2ccccc2)C(C)(C)C)N1C(=O)c1ccccc1`, for which the TGI is 14.6 µM in the assay with HL-60(TB) leukemia; > 100 µM in the assay on IGROV1 ovarian; 34.6 µM with KM12 colon; > 100 µM in the assay with NCI/ADR-RES ovarian; 30.5 µM in the assay with OVCAR-3 ovarian; > 100 µM in the assay on OVCAR-8 ovarian. For the same compound, the TGI in the assay with PC-3 prostate is > 100 µM; in the assay with SF-268 CNS it was 81.4 µM; in the assay on SR leukemia, 23.7 µM; in the assay on UO-31 renal, 36.5 µM.
For the compound `O=C1CCSSCCC(=O)Nc2ccccc2N1`, the TGI with HL-60(TB) leukemia, in the assay with IGROV1 ovarian, in the assay with KM12 colon, with NCI/ADR-RES ovarian, with OVCAR-3 ovarian and in the assay on OVCAR-8 ovarian was > 100 µM throughout. Also, the TGI in the assay on PC-3 prostate, in the assay with SF-268 CNS, with SR leukemia and with UO-31 renal was > 100 µM each time.
Turning to `CC(C)=CC(=O)O[C@@H]1CC(C)(C)CC2C3=CCC4[C@]56CC[C@](O)(OC5)C(C)(C)C6CC[C@@]4(C)C3(C)CC[C@]21C(=O)O` (stereo partly drawn), the TGI with HL-60(TB) leukemia, in the assay with IGROV1 ovarian, in the assay on KM12 colon, in the assay on NCI/ADR-RES ovarian, with OVCAR-3 ovarian and with OVCAR-8 ovarian was > 100 µM each time. For the same compound, the TGI in the assay on PC-3 prostate, in the assay with SF-268 CNS and in the assay with SR leukemia was > 100 µM in each case.
For the compound `CC1=NN(c2nc(N)nc(/C(C#N)=C/c3ccncc3)n2)C(C)(C)C1`, the TGI in the assay with HL-60(TB) leukemia, in the assay with IGROV1 ovarian, with KM12 colon, in the assay with NCI/ADR-RES ovarian, in the assay on OVCAR-8 ovarian and in the assay on PC-3 prostate was > 100 µM throughout. For the same compound, the TGI in the assay on SF-268 CNS, in the assay with SR leukemia and with UO-31 renal was > 100 µM throughout.
`CSc1c(C(C)=O)c(O)n(-c2ccc(Cl)cc2)c(=O)c1C#N`: the TGI in the assay with HL-60(TB) leukemia was 46.9 µM; in the assay on KM12 colon, > 100 µM; in the assay with NCI/ADR-RES ovarian, > 100 µM; with OVCAR-3 ovarian, > 100 µM; in the assay with OVCAR-8 ovarian, > 100 µM; in the assay with PC-3 prostate, > 100 µM. In addition, the results for the TGI in the assay with SF-268 CNS, in the assay with SR leukemia and in the assay on UO-31 renal were > 100 µM, > 100 µM and 84.6 µM, respectively.
On to `CN(C)c1ccc(-c2nc(-c3cc4c(ccc5ccccc54)oc3=O)cs2)cc1`, for which the TGI in the assay on HL-60(TB) leukemia, in the assay with IGROV1 ovarian, with KM12 colon, in the assay with NCI/ADR-RES ovarian, in the assay with OVCAR-8 ovarian and with PC-3 prostate was > 100 µM each time. Besides, the TGI with SF-268 CNS, in the assay on SR leukemia and in the assay on UO-31 renal was > 100 µM each time.

For the origin of these results see PubChem BioAssay (NCI).
